Experimental data taken from US20110098288A1, “SULFONAMIDES AS ZAP-70 INHIBITORS” (priority 2008, published 2011).
Where a name gives a salt, the structure may show the parent alone.

Experiments:
ZAP-70 = molecular target: T1, ZAP-70 (Homo sapiens, UniProt P43403); assay: ZAP-70 kinobeads assay; type: binding; conditions: competition with immobilized aminopyrido-pyrimidine ligand 24 in cell lysate; ZAP-70 detected by dot blot
T1 construct: endogenous in cells; host or cells: cell lysate
T1 sequence (P43403 1-619): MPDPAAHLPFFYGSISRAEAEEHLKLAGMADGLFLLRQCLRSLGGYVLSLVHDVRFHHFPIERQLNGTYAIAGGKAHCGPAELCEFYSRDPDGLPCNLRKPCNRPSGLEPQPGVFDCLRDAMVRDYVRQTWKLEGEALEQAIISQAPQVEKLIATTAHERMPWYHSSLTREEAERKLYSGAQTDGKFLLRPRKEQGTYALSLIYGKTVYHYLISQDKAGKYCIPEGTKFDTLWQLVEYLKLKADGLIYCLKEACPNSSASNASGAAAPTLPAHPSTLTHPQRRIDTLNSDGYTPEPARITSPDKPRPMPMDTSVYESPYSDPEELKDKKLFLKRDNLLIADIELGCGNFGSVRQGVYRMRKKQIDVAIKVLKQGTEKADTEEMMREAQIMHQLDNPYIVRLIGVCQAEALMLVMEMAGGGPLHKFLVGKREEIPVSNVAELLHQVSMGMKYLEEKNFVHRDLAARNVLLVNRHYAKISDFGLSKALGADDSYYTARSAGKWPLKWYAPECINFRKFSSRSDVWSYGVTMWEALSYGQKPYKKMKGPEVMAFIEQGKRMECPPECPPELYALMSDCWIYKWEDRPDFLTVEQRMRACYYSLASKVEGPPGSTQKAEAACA
Summary of the method: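 Cell lysate aliquots incubated with test compounds at various concentrations plus affinity beads carrying immobilized aminopyrido-pyrimidine ligand 24. Bead-captured proteins eluted; ZAP-70 quantified by specific antibody dot blot with infrared detection.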

Jurkat cells = assay: Calcium release assay (Fluo-4 flow cytometry after anti-CD3 stimulation); type: cell-based; conditions: Homo sapiens, Jurkat cell line J77, anti-CD3 activation, read-out: IC50 (Calcium ion release in cells)
Summary of the method: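 Jurkat J77 cells loaded with Fluo-4/Pluronic F-127 for 30 min at 37 °C, then incubated with compound at room temperature in the dark in PBS–CaCl2 with 10% FCS. Stimulation with anti-CD3 (0.2 μg/ml final) plus GAM (0.75 μg/ml final) at 37 °C, then flow-cytometric Ca2+ fluorescence acquired for 200 s.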

| IC50 (ZAP-70) [µM] | IC50 (Jurkat cells) [µM] | Structure (SMILES) |
| --- | --- | --- |
| < 0.1 | < 0.1 | CCOc1ccc(Nc2nc(Nc3cc(OC)c(OC)c(OC)c3)ncc2F)c(NS(C)(=O)=O)c1 [Example 175, N-(5-ethoxy-2-(5-fluoro-2-(3,4,5-trimethoxyphenylamino)pyrimidin-4-ylamino)phenyl)methanesulfonamide] |
| 0.1 to 1 | < 0.1 | COc1cc(Nc2nccc(Nc3cccc(C)c3NS(C)(=O)=O)n2)cc(OC)c1OC [Example 176, N-(2-methyl-6-(2-(3,4,5-trimethoxyphenylamino)pyrimidin-4-ylamino)phenyl)methanesulfonamide] |
| 0.1 to 1 | 0.1 to 1 | COc1cc(Nc2nccc(Nc3cccc(C)c3NS(C)(=O)=O)n2)cc(OCCN2CCCCC2)c1 [Example 177, N-(2-(2-(3-methoxy-5-(2-(piperidin-1-yl)ethoxy)phenylamino)pyrimidin-4-ylamino)-6-methylphenyl)methanesulfonamide formate salt] |
| < 0.1 | 0.1 to 1 | COc1ccc(Nc2nc(Nc3cc(OC)c(OC)c(OC)c3)ncc2Br)c(NS(C)(=O)=O)c1 [Example 178, N-(2-(5-bromo-2-(3,4,5-trimethoxyphenylamino)pyrimidin-4-ylamino)-5-methoxyphenyl)methanesulfonamide] |
| < 0.1 | < 0.1 | COc1cc(Nc2ncc(F)c(Nc3ccc(OC(C)C)cc3NS(C)(=O)=O)n2)cc(OC)c1OC [Example 182, N-(2-(5-fluoro-2-(3,4,5-trimethoxyphenylamino)pyrimidin-4-ylamino)-5-isopropoxyphenyl)methanesulfonamide] |
| 0.1 to 1 | 0.1 to 1 | COc1cc(Nc2ncc(F)c(Nc3cccc(F)c3NS(C)(=O)=O)n2)cc(OC)c1OC [Example 183, N-(2-fluoro-6-(5-fluoro-2-(3,4,5-trimethoxyphenylamino)pyrimidin-4-ylamino)phenyl)methanesulfonamide] |
| 0.1 to 1 | 0.1 to 1 | COc1cc(Nc2ncc(F)c(Nc3cccc(Cl)c3NS(C)(=O)=O)n2)cc(OC)c1OC [Example 184, N-(2-chloro-6-(5-fluoro-2-(3,4,5-trimethoxyphenylamino)pyrimidin-4-ylamino)phenyl)methanesulfonamide] |
| 0.1 to 1 | 0.1 to 1 | CS(=O)(=O)Nc1ccccc1Nc1nc(Nc2ccc(N3CCCCC3)cc2)ncc1Br [Example 215, N-(2-(5-bromo-2-(4-(piperidin-1-yl)phenylamino)pyrimidin-4-ylamino)phenyl)methanesulfonamide] |

The next lines start with the compound.

| Structure (SMILES) | IC50 (ZAP-70) [µM] | IC50 (Jurkat cells) [µM] |
| --- | --- | --- |
| CCN(c1ccccc1Nc1nc(Nc2cc(OC)c(OC)c(OC)c2)ncc1F)S(C)(=O)=O [Example 154, N-ethyl-N-(2-(5-fluoro-2-(3,4,5-trimethoxyphenylamino)pyrimidin-4-ylamino)phenyl)methanesulfonamide] | 0.1 to 1 | < 0.1 |
| CCN(c1ccccc1Nc1nc(Nc2ccc(OCCN3CCCCC3)cc2)ncc1F)S(C)(=O)=O [Example 158, N-ethyl-N-(2-(5-fluoro-2-(4-(2-(piperidin-1-yl)ethoxy)phenylamino)pyrimidin-4-ylamino)phenyl)methanesulfonamide] | 0.1 to 1 | < 0.1 |
| COc1cc(Nc2ncc(Cl)c(Nc3cccc(C)c3NS(C)(=O)=O)n2)cc(OC)c1OC [Example 160, N-(2-(5-chloro-2-(3,4,5-trimethoxyphenylamino)pyrimidin-4-ylamino)-6-methylphenyl)methanesulfonamide] | < 0.1 | < 0.1 |
| COc1cc(Nc2ncc(F)c(Nc3cccc(C(C)C)c3NS(C)(=O)=O)n2)cc(OC)c1OC [Example 161, N-(2-(5-fluoro-2-(3,4,5-trimethoxyphenylamino)pyrimidin-4-ylamino)-6-isopropylphenyl)methanesulfonamide] | 0.1 to 1 | 0.1 to 1 |
| COc1cc(Nc2ncc(F)c(Nc3ccc(F)c(C)c3NS(C)(=O)=O)n2)cc(OC)c1OC [Example 162, N-(3-fluoro-6-(5-fluoro-2-(3,4,5-trimethoxyphenylamino)pyrimidin-4-ylamino)-2-methylphenyl)methanesulfonamide] | 0.1 to 1 | 0.1 to 1 |
| COc1cc(Nc2ncc(Cl)c(Nc3ccc4c(c3NS(C)(=O)=O)OCCO4)n2)cc(OC)c1OC [Example 164, N-(6-(5-chloro-2-(3,4,5-trimethoxyphenylamino)pyrimidin-4-ylamino)-2,3-dihydrobenzo[b][1,4]dioxin-5-yl)methanesulfonamide] | < 0.1 | < 0.1 |
| COc1cc(Nc2ncc(F)c(Nc3ccc(C)c(C)c3NS(C)(=O)=O)n2)cc(OC)c1OC [Example 165, N-(6-(5-fluoro-2-(3,4,5-trimethoxyphenylamino)pyrimidin-4-ylamino)-2,3-dimethylphenyl)methanesulfonamide] | 0.1 to 1 | 0.1 to 1 |
| CCOc1cccc(Nc2nc(Nc3cc(OC)c(OC)c(OC)c3)ncc2F)c1NS(C)(=O)=O [Example 166, N-(2-ethoxy-6-(5-fluoro-2-(3,4,5-trimethoxyphenylamino)pyrimidin-4-ylamino)phenyl)methanesulfonamide] | < 0.1 | 0.1 to 1 |
| COc1cc(Nc2ncc(F)c(Nc3ccc4c(c3NS(C)(=O)=O)OCCO4)n2)cc(OC)c1OC [Example 167, N-(6-(5-fluoro-2-(3,4,5-trimethoxyphenylamino)pyrimidin-4-ylamino)-2,3-dihydrobenzo[b][1,4]dioxin-5-yl)methanesulfonamide] | < 0.1 | < 0.1 |
| CCOc1ccc(Nc2nc(Nc3cc(OC)c(OC)c(OC)c3)ncc2F)c(NS(C)(=O)=O)c1C [Example 168, N-(3-ethoxy-6-(5-fluoro-2-(3,4,5-trimethoxyphenylamino)pyrimidin-4-ylamino)-2-methylphenyl)methanesulfonamide] | 0.1 to 1 | 0.1 to 1 |
| CCc1cccc(Nc2nc(Nc3cc(OC)c(OC)c(OC)c3)ncc2F)c1NS(C)(=O)=O [Example 169, N-(2-ethyl-6-(5-fluoro-2-(3,4,5-trimethoxyphenylamino)pyrimidin-4-ylamino)phenyl)methanesulfonamide] | < 0.1 | 0.1 to 1 |
| COc1cc(Nc2ncc(F)c(Nc3ccc(C)cc3NS(C)(=O)=O)n2)cc(OC)c1OC [Example 170, N-(2-(5-Fluoro-2-(3,4,5-trimethoxyphenylamino)pyrimidin-4-ylamino)-5-methylphenyl)methanesulfonamide] | 0.1 to 1 | 0.1 to 1 |
| COc1cc(Nc2ncc(F)c(Nc3ccc(N4CCOCC4)cc3NS(C)(=O)=O)n2)cc(OC)c1OC [Example 171, N-(2-(5-fluoro-2-(3,4,5-trimethoxyphenylamino)pyrimidin-4-ylamino)-5-morpholinophenyl)methanesulfonamide] | 0.1 to 1 | 0.1 to 1 |
| COc1cccc(Nc2nc(Nc3cc(OC)c(OC)c(OC)c3)ncc2F)c1NS(C)(=O)=O [Example 172, N-(2-(5-fluoro-2-(3,4,5-trimethoxyphenylamino)pyrimidin-4-ylamino)-6-methoxyphenyl)methanesulfonamide] | 0.1 to 1 | 0.1 to 1 |
| COc1ccc(Nc2nc(Nc3cc(OC)c(OC)c(OC)c3)ncc2F)c(NS(C)(=O)=O)c1 [Example 173, N-(2-(5-fluoro-2-(3,4,5-trimethoxyphenylamino)pyrimidin-4-ylamino)-5-methoxyphenyl)methanesulfonamide] | < 0.1 | < 0.1 |
